Data from the NIST ThermoML archive (doi:10.1016/j.tca.2009.06.015).
Where “and” joins values, the source holds several entries; their conditions need not be identical. Equal values may be shown once. ± gives the expanded uncertainty stated by the source.

Key:
[1] = xn = mol fraction of the nth substance listed; conditions: 101 kPa, Liquid; for viscosity: Capillary tube (Ostwald / Ubbelohde) method; for mass density: Vibrating tube method
[2] = refractive index (Na D-line) (dimensionless); xn = mol fraction of the nth substance listed; conditions: 101 kPa, Liquid, Standard Abbe refractometry
[3] = 101 kPa, Liquid; for viscosity: Capillary tube (Ostwald / Ubbelohde) method; for mass density: Vibrating tube method
[4] = refractive index (Na D-line) (dimensionless); conditions: 101.33 kPa, Liquid, Standard Abbe refractometry

CC#N [acetonitrile] + CCCC(C)O
x1 = 1
Conditions | mass density, [1] [kg/m3] | refractive index, [2] | viscosity, [1] [mPa·s]
293.15 K | 782.04 ± 0.31 | 1.3436 ± 0.0021 | 0.3542 ± 0.071
298.15 K | 776.64 ± 0.31 | 1.3411 ± 0.0021 | 0.3369 ± 0.067
303.15 K | 771.21 ± 0.31 | 1.339 ± 0.0021 | 0.3254 ± 0.065
308.15 K | 765.75 ± 0.31 | 1.3371 ± 0.0021 | 0.3082 ± 0.062

CCCCC(C)O (stereo unspecified) [2-hexanol]
Conditions | mass density, [3] [kg/m3] | refractive index, [4] | viscosity, [3] [mPa·s]
293.15 K | 814.08 ± 0.3 | 1.4135 ± 0.0021 | 5.155 ± 0.061
298.15 K | 810.14 ± 0.31 | 1.4116 ± 0.0021 | 4.1 ± 0.05
303.15 K | 806.13 ± 0.31 | 1.4093 ± 0.0021 | 3.41 ± 0.04
308.15 K | 802.06 ± 0.31 | 1.4077 ± 0.0021 | 2.819 ± 0.034

CC(C)O [propan-2-ol] + CC#N
x2 = 0
Conditions | mass density, [1] [kg/m3] | refractive index, [2] | viscosity, [1] [mPa·s]
293.15 K | 785.19 ± 0.31 | 1.3766 ± 0.0021 | 2.351 ± 0.024
298.15 K | 780.98 ± 0.31 | 1.3745 ± 0.0021 | 2.044 ± 0.022
303.15 K | 776.71 ± 0.31 | 1.3724 ± 0.0021 | 1.758 ± 0.019
308.15 K | 772.36 ± 0.31 | 1.3703 ± 0.0021 | 1.532 ± 0.017

CC#N [acetonitrile]
Conditions | mass density, [3] [kg/m3] | refractive index, [4] | viscosity, [3]
293.15 K | 782.04 ± 0.31 | 1.3436 ± 0.0021 | 0.3542 ± 0.004 mPa·s
298.15 K | 776.64 ± 0.31 | 1.3411 ± 0.0021 | 0.3369 ± 0.0038 mPa·s and 0.336 ± 0.004 mPa·s
303.15 K | 771.21 ± 0.31 | 1.339 ± 0.0021 | 0.3254 ± 0.0037 mPa·s and 0.325 ± 0.004 mPa·s
308.15 K | 765.75 ± 0.31 | 1.3371 ± 0.0021 | 0.3082 ± 0.0036 mPa·s and 0.308 ± 0.004 mPa·s

CCCC(C)O (stereo unspecified) [pentan-2-ol]
Conditions | mass density, [3] [kg/m3] | refractive index, [4] | viscosity, [3] [mPa·s]
293.15 K | 809.29 ± 0.31 | 1.406 ± 0.0021 | 4.298 ± 0.05
298.15 K | 805.24 ± 0.34 | 1.4045 ± 0.0039 | 3.478 ± 0.059

CCCCCC(C)O (stereo unspecified) [2-heptanol]
Conditions | mass density, [3] [kg/m3] | refractive index, [4] | viscosity, [3] [mPa·s]
293.15 K | 817.18 ± 0.3 | 1.4206 ± 0.0021 | 6.52 ± 0.072
298.15 K | 813.33 ± 0.3 | 1.4188 ± 0.0021 | 5.33 ± 0.063
303.15 K | 809.44 ± 0.31 | 1.4165 ± 0.0021 | 4.301 ± 0.052
308.15 K | 805.5 ± 0.31 | 1.4143 ± 0.0021 | 3.528 ± 0.044

CC#N [acetonitrile] + CCC(C)O
x1 = 1
Conditions | mass density, [1] [kg/m3] | refractive index, [2] | viscosity, [1] [mPa·s]
293.15 K | 782.04 ± 0.31 | 1.3436 ± 0.0021 | 0.3542 ± 0.004
298.15 K | 776.64 ± 0.31 | 1.3411 ± 0.0021 | 0.3369 ± 0.0038
303.15 K | 771.21 ± 0.31 | 1.339 ± 0.0021 | 0.3254 ± 0.0037
308.15 K | 765.75 ± 0.31 | 1.3371 ± 0.0021 | 0.3082 ± 0.0036

CCC(C)O (stereo unspecified) [butan-2-ol]
Conditions | mass density, [3] [kg/m3] | refractive index, [4] | viscosity, [3] [mPa·s]
293.15 K | 806.57 ± 0.31 | 1.3966 ± 0.0021 | 3.912 ± 0.046
298.15 K | 802.56 ± 0.31 | 1.3946 ± 0.0021 | 3.132 ± 0.039
303.15 K | 798.26 ± 0.31 | 1.3924 ± 0.0021 | 2.534 ± 0.029
308.15 K | 793.96 ± 0.31 | 1.3905 ± 0.0021 | 2.172 ± 0.024

CC#N [acetonitrile] + CCCCC(C)O
x1 = 1
Conditions | mass density, [1] [kg/m3] | refractive index, [2] | viscosity, [1] [mPa·s]
293.15 K | 782.04 ± 0.31 | 1.3436 ± 0.0021 | 0.3542 ± 0.004
298.15 K | 776.64 ± 0.31 | 1.3411 ± 0.0021 | 0.336 ± 0.004
303.15 K | 771.21 ± 0.31 | 1.339 ± 0.0021 | 0.325 ± 0.004
308.15 K | 765.75 ± 0.31 | 1.3371 ± 0.0021 | 0.308 ± 0.004

CC#N [acetonitrile] + CCCCCC(C)O
x1 = 1
Conditions | mass density, [1] [kg/m3] | refractive index, [2] | viscosity, [1] [mPa·s]
293.15 K | 782.04 ± 0.31 | 1.3436 ± 0.0021 | 0.3542 ± 0.036
298.15 K | 776.64 ± 0.31 | 1.3411 ± 0.0021 | 0.3369 ± 0.034
303.15 K | 771.21 ± 0.31 | 1.339 ± 0.0021 | 0.3254 ± 0.033
308.15 K | 765.75 ± 0.31 | 1.3371 ± 0.0021 | 0.3082 ± 0.031

CC(C)O [propan-2-ol]
Conditions | mass density, [3] [kg/m3] | refractive index, [4] | viscosity, [3] [mPa·s]
293.15 K | 785.19 ± 0.31 | 1.3766 ± 0.0021 | 2.351 ± 0.024
298.15 K | 780.98 ± 0.31 | 1.3745 ± 0.0021 | 2.044 ± 0.022
303.15 K | 776.71 ± 0.31 | 1.3724 ± 0.0021 | 1.758 ± 0.019
308.15 K | 772.36 ± 0.31 | 1.3703 ± 0.0021 | 1.532 ± 0.017
